Source: patent US10107817B2, “Oligopeptide specific to ovarian cancer, polynucleotide for encoding oligopeptide, test kit for detecting ovarian cancer and method for detecting ovarian cancer” (NATIONAL TSING HUA UNIVERSITY, priority 2016, dated 2018)

Key:
[1] = tested on: ovarian serous tumor tissue section; assay: Binding of the FAM-labelled oligopeptide to ovarian cancer tissue sections, fluorescence microscopy; conditions: 60 rpm, 60 minutes, room temperature, FIG. 2
Description: (§1) In subsequent examples, the oligopeptide of the present disclosure is used to detect whether the sample has the oligopeptide-cancer cell complex. The oligopeptide consisted of the amino acid sequence of SEQ ID NO: 1 is chemically synthesized and modified a green fluorescence (FAM) at N-terminus in subsequent examples.
(§2) The sample uses in this example is the ovarian cancer tissue including an ovarian serous tumor tissue section, an ovarian mucinous tumor tissue section and an ovarian clear cell carcinoma tissue section. Besides, a normal ovarian tissue section is used as a control. The oligopeptide modified with the green fluorescence is respectively mixed with different groups of the sample at 60 rpm for 60 minutes at room temperature. The samples are washed several times with PBS containing 1% BSA. Then the sample is observed under a fluorescence microscopy, wherein the green fluorescent signal represents that the oligopeptide-cancer cell complex is presented in the sample.

[2] = tested on: ovarian mucinous tumor tissue section; assay: as above; conditions: 60 rpm, 60 minutes, room temperature, FIG. 2
Description: as §1, §2

[3] = tested on: ovarian clear cell carcinoma tissue section; assay: as above; conditions: 60 rpm, 60 minutes, room temperature, FIG. 2
Description: as §1, §2

OVCAR3 cell = assay: Binding of the FAM-labelled oligopeptide to ovarian cancer cells, fluorescence microscopy; parameters: species or system human; conditions: 12-well plate, 1×10^5 cells/well, 60 rpm, 60 minutes, room temperature, FIG. 3
Description: as §1
(§3) The sample uses in this example is the ovarian cancer cell, wherein the ovarian cancer cell is OVCAR3 cell (a human serous epithelial ovarian cancer cell line). Besides, a normal cervical epithelial cell is used as the control. The OVCAR3 cell and the normal cervical epithelial cell are cultured and stored in Department of Obstetrics and Gynecology of National Cheng Kung University Hospital. The OVCAR3 cell and the normal cervical epithelial cell are respectively seeded in a 12-well plate with 1×10^5 cells/well and then maintained at 37° C. in a humidified atmosphere of 5% CO2 until the cells are adhered in the next day. The oligopeptide modified with the green fluorescence is respectively mixed with different groups of the sample at 60 rpm for 60 minutes at room temperature. The sample is washed several times with the PBS containing 1% BSA. Then the sample is observed under a fluorescence microscopy, wherein the green fluorescent signal represents that the oligopeptide-cancer cell complex is presented in the sample.

[4] = tested on: normal ovarian tissue section; assay: Binding of the FAM-labelled oligopeptide to control tissue section, fluorescence microscopy; conditions: 60 rpm, 60 minutes, room temperature, FIG. 2
Description: as §1, §2

[5] = tested on: normal cervical epithelial cell; assay: Binding of the FAM-labelled oligopeptide to control cells, fluorescence microscopy; conditions: 12-well plate, 1×10^5 cells/well, 60 rpm, 60 minutes, room temperature, FIG. 3
Description: as §1, §3

Substance: oligopeptide of the present disclosure: oligopeptide consisted of the amino acid sequence of SEQ ID NO: 1, chemically synthesized, specific to ovarian cancer (KRLTPLSPDHYD)
- green fluorescent signal (oligopeptide-cancer cell complex) [1]: green fluorescent signal can be detected
- green fluorescent signal (oligopeptide-cancer cell complex) [2]: green fluorescent signal can be detected
- green fluorescent signal (oligopeptide-cancer cell complex) [3]: green fluorescent signal can be detected
- FAM signal (oligopeptide-cancer cell complex) (OVCAR3 cell): FAM signal can be detected
- green fluorescent signal (oligopeptide-cancer cell complex) [4]: no significant green fluorescent signal detected
- FAM signal (oligopeptide-cancer cell complex) [5]: no significant FAM signal detected
